Where a SMILES comes first, the peptide text is derived from it. Bridges are numbered along the chain shown (N, C = ends). [ ]: non-standard residue; d: D form. The star is where a group is joined. hPhe(3-Cl-4-CF3) = N[C@@H](CCc1ccc(C(F)(F)F)c(Cl)c1)C(=O)O; NPrPhe(4-CF3) = CCCN[C@@H](Cc1ccc(C(F)(F)F)cc1)C(=O)O; NMeGly(cPent) = CN[C@H](C(=O)O)C1CCCC1; NMeNva(3-Et) = CCC(CC)[C@H](NC)C(=O)O; NMeD = CN[C@@H](CC(=O)O)C(=O)O; NMeL = CN[C@@H](CC(C)C)C(=O)O; Morpholide = C1CN(*)CCO1; NMeA = CN[C@@H](C)C(=O)O; Aze = O=C(O)[C@@H]1CCN1; Ac4c = NC1(C(=O)O)CCC1; Sar = CNCC(=O)O
Legend:
[1] = tested on: human lung cancer strain NCI-H441; type: cell-based
Method in brief: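 Signal came from […] measured per well once the reagent was added. Beforehand, cells were cultured at 37°C and 5% carbon dioxide on a compound series serially diluted in dimethyl sulfoxide.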

[2] = target: GDP-bound NRAS wild-type protein (Homo sapiens, UniProt P01111); experiment: Binding to NRAS by surface plasmon resonance (SPR), KD and KD ratio to KRAS
Chain of GDP-bound NRAS wild-type protein (P01111 whole entry): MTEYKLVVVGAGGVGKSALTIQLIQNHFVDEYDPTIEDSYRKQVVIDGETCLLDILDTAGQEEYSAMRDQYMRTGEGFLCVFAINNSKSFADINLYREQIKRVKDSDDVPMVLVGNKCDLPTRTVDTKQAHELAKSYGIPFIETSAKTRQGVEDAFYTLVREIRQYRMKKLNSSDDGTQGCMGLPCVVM
Method in brief: (§1)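 Each cycle, GDP-bound biotin-Avi RAS was captured (~100–300 RU), compound concentrations were injected low to high for 75 s each at 100 µL/min, then the chip was regenerated. Buffer: HBS pH 7.4, 10 mM MgCl2, 10 µM GDP, 1 mM DTT, 4% DMSO; 30°C. KD from a 1:1 binding model.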

[3] = target: HRAS wild-type protein (Homo sapiens, UniProt P01112); experiment: Binding to HRAS by surface plasmon resonance (SPR), KD and KD ratio to KRAS
Chain of HRAS wild-type protein (P01112 whole entry): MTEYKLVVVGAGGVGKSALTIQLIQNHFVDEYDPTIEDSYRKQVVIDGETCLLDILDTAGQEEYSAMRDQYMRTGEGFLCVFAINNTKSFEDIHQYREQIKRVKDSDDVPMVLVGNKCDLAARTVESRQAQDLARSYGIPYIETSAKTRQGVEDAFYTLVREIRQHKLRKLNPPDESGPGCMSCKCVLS
Method in brief: as §1

[4] = ratio of KD for GDP-bound NRAS wild-type protein to KD for KRAS
[5] = ratio of KD for HRAS wild-type protein to KD for KRAS
[6] = ratio of the KD value with respect to GDP-bound NRAS wild-type protein to the KD value with respect to KRAS
[7] = ratio of the KD value with respect to HRAS wild-type protein to the KD value with respect to KRAS

IC50 [1] [µM]	SMILES	NRAS /KRAS [2, 4]	HRAS /KRAS [3, 5]	NRAS /KRAS [2, 6]	HRAS /KRAS [3, 7]	NRAS /KRAS ([2]; ratio of KD value for GDP-bound NRAS wild-type protein to KD value for KRAS (SPR))	HRAS /KRAS ([3]; ratio of KD value for HRAS wild-type protein to KD value for KRAS (SPR))
0.0036	CCCN1C(=O)CN(C)C(=O)CN(C)C(=O)[C@H]([C@@H](C)CC)NC(=O)[C@H](CC(C)C)N(C)C(=O)C[C@@H](C(=O)N2CCOCC2)N(C)C(=O)[C@H](C2CCCC2)N(C)C(=O)C2(CCC2)NC(=O)[C@@H]2CCCN2C(=O)[C@H](CCc2ccc(C(F)(F)F)c(Cl)c2)NC(=O)CN(C)C(=O)[C@@H]1Cc1ccc(C(F)(F)F)cc1 [PP0197] ([NMeL]I[Sar][Sar][NPrPhe(4-CF3)][Sar][hPhe(3-Cl-4-CF3)]P[Ac4c][NMeGly(cPent)][NMeD]-Morpholide; lactam N-11)	B (a compound having 3 or more and less than 10 is denoted as B)	C (A compound having a KD ratio of 0.1 or more and less than 3 is denoted as C)				
0.0061	CCO[C@@H]1C[C@H]2C(=O)NC3(CCC3)C(=O)N(C)[C@@H](C(CC)CC)C(=O)N(C)[C@H](C(=O)N3CCCC3)CC(=O)N(C)[C@H]3CCCC/C=C/c4ccc(cc4)C[C@@H](C(=O)N(C)CC(=O)N[C@@H](CCc4ccc(Cl)c(Cl)c4)C(=O)N2C1)N1CC/C=C\C[C@@H](C1=O)N(C)C(=O)CN(C)C(=O)[C@H]([C@@H](C)CC)NC3=O [PP3047]	AA (a compound having 20 or more is denoted as AA)	A (a compound having 10 or more and less than 20 is denoted as A)				
0.008	CCCN1C(=O)[C@@H]2CCN2C(=O)[C@H](C)N(C)C(=O)[C@H]([C@@H](C)CC)NC(=O)[C@H](CC(C)C)N(C)C(=O)C[C@@H](C(=O)N(C)C)N(C)C(=O)[C@H](C(CC)CC)N(C)C(=O)C2(CCC2)NC(=O)[C@@H]2CCCN2C(=O)[C@H](CCc2ccc(C(F)(F)F)c(Cl)c2)NC(=O)CN(C)C(=O)[C@@H]1Cc1ccc(C(F)(F)F)cc1 [PP1961] ([NMeL]I[NMeA][Aze][NPrPhe(4-CF3)][Sar][hPhe(3-Cl-4-CF3)]P[Ac4c][NMeNva(3-Et)][NMeD]-NMe2; lactam N-11)			C (A compound having a KD ratio of 0.1 or more and less than 3 is denoted as C)	C (A compound having a KD ratio of 0.1 or more and less than 3 is denoted as C)		
0.197	CC[C@H](C)[C@@H]1NC(=O)[C@H](CC(C)C)N(C)C(=O)C[C@@H](C(=O)N2CCOCC2)N(C)C(=O)[C@H](C2CCCC2)N(C)C(=O)C2(CCCC2)NC(=O)[C@@H]2CCCN2C(=O)[C@H](CCc2ccc(C(F)(F)F)c(Cl)c2)NC(=O)CN(C)C(=O)[C@H](Cc2ccc(OC(F)(F)F)cc2)N2CC=CC[C@@H](C2=O)N(C)C(=O)CN(C)C1=O [PP0537]			C (A compound having a KD ratio of 0.1 or more and less than 3 is denoted as C)	C (A compound having a KD ratio of 0.1 or more and less than 3 is denoted as C)		
0.01	CCCN(C)C(=O)[C@@H]1CC(=O)N(C)[C@@H](CC(F)F)C(=O)N[C@@H]([C@@H](C)CC)C(=O)N(C)CC(=O)N(C)[C@H]2C/C=C\CCN(C2=O)[C@@H](Cc2ccc(C(F)(F)F)cc2)C(=O)N(C)CC(=O)N[C@@H](CCc2cc(F)c(C(F)(F)F)c(F)c2)C(=O)N2CCC[C@H]2C(=O)NC2(CC(C)(C)C2)C(=O)N(C)[C@@H](C2CCCC2)C(=O)N1C [PP1721]					A (a compound having 10 or more and less than 20 is denoted as A)	A (a compound having 10 or more and less than 20 is denoted as A)
0.0633	CCO[C@@H]1C[C@H]2C(=O)NC3(CCC3)C(=O)N(C)[C@@H](C3CCCC3)C(=O)N(C)[C@H](C(=O)N(C)C)CC(=O)N(C)[C@@H](CC3CCCC3)C(=O)N[C@@H]([C@@H](C)CC)C(=O)N(C)CC(=O)N(C)[C@H]3C/C=C\CCN(C3=O)[C@@H](Cc3ccc(C)cc3)C(=O)N(C)CC(=O)N[C@@H](CCc3ccc(C4CC4)c(F)c3)C(=O)N2C1 [PP2683]	A (a compound having 10 or more and less than 20 is denoted as A)	A (a compound having 10 or more and less than 20 is denoted as A)				

SMILES	IC50 [1] [µM]	NRAS /KRAS [2, 4]	HRAS /KRAS [3, 5]	NRAS /KRAS [2, 6]	HRAS /KRAS [3, 7]	NRAS /KRAS ([2]; ratio of KD value for GDP-bound NRAS wild-type protein to KD value for KRAS (SPR))	HRAS /KRAS ([3]; ratio of KD value for HRAS wild-type protein to KD value for KRAS (SPR))
CCO[C@@H]1C[C@H]2C(=O)NC3(CCC3)C(=O)N(C)[C@@H](C(CC)CC)C(=O)N(C)[C@H](C(=O)N3CCCCC3)CC(=O)N(C)[C@H]3CCCC/C=C/c4ccc(cc4)C[C@@H](C(=O)N(C)CC(=O)N[C@@H](CCc4ccc(Cl)c(Cl)c4)C(=O)N2C1)N1CC/C=C\C[C@@H](C1=O)N(C)C(=O)CN(C)C(=O)[C@H]([C@@H](C)CC)NC3=O [PP3046]	0.0167	AA (a compound having 20 or more is denoted as AA)	A (a compound having 10 or more and less than 20 is denoted as A)				
